Experimental data published in PMC5428521, “Identification of a Novel, Small Molecule Partial Agonist for the Cyclic AMP Sensor, EPAC1” (Scientific Reports, 2017).
Read-outs that look alike come from different tables or passages of the source.

Tests used:
EPAC1-CNB [1] = biological target: T1, EPAC1-CNB (Homo sapiens, UniProt O95398); assay: Ligand observed NMR (1D and waterLOGSY) with EPAC1-CNB; format: binding; conditions: compound 50 µM, protein 2.5 µM
T1 construct: EPAC1-CNB (amino acids 169–318 of EPAC1); made in house; host or cells: BL-21 Escherichia coli (pGEX-6P-1)
T1 sequence (O95398 169-318 isoform O95398-3): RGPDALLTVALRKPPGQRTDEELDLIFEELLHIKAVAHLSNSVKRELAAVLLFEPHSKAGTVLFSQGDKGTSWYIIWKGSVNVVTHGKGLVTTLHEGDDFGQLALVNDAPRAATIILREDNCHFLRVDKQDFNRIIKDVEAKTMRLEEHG
Text: Given that I942 seems to exert selective agonist properties against EPAC1, but not EPAC2, we next sought to validate whether our isolated ligands can interact with EPAC1 and EPAC2. Ligand observed nuclear magnetic resonance (NMR) is a valuable tool for the identification and validation of small molecule ligands. We therefore used one dimensional proton (1D) and water-ligand observed by gradient spectroscopy (waterLOGSY) NMR to confirm the ability of I942 and I178 to bind to the purified CNBs of EPAC1 and EPAC2, in comparison with the commercially available EPAC1 antagonist, ESI-09[32]. In order to assess ligand/CNB interaction, 1D and waterLOGSY experiments were performed on each compound (50 µM) in the presence or absence of 2.5 µM EPAC-CNB. In the absence of protein, each test compound produced a well-resolved 1D spectrum and a region of each spectrum was chosen to display distinctive spectral peaks originating from the ligand (Fig. 6). In the absence of protein, the corresponding waterLOGSY peaks were small, or absent, due to the negligible signal produced by saturation transfer from water to the freely tumbling small molecule. […] In waterLOGSY spectra, protein-mediated saturation transfer can only occur if the protein-ligand complex has a substantial lifetime. […]
(A) One dimensional proton (1D) and waterLOGSY (WL) spectra were performed on samples containing hit compound I942 (50 µM) in the absence and presence of EPAC1-CNB, EPAC2-CNB or GST alone, as indicated (2.5 µM). […] Interaction between compound and protein was assessed through comparison of the compound alone and protein-compound sample spectra. […]
All NMR spectra were recorded on a Bruker AVANCE IIIHD 600 spectrometer equipped with a TCI cryoprobe at 285 K. Test compounds were prepared in deuterated DMSO and diluted to given experimental concentrations in NMR buffer (20 mM Na2PO4, pH 7.0, 50 mM NaCl, 0.1% (w/v) NaN3, 5% (v/v) D2O) with a final DMSO concentration below 0.1%. […] One dimensional proton (1D) and waterLOGSY spectra were recorded for all compounds tested, using pulse sequences as previously described. […]

EPAC1-CNB [2] = biological target: T1, EPAC1-CNB; assay: 8-NBD-cAMP competition assay with EPAC1-CNB; format: binding; conditions: for IC50: 7-point dose response, 75 µM top concentration, 0.75% DMSO
Description: Optimisation of assay conditions was performed in 96 well black assay plates (Greiner). Comparison of reference molecules, dose response curves and pilot screen were done in black, low volume 384 assay plates (Greiner). Liquids were dispensed using a Biomek Fx laboratory automation workstation with a 96-multichannel pipetting head (Beckman Coulter) for optimisation, whereas the Echo® Liquid Handler (Labcyte) and Wellmate automated dispenser (Thermo Matrix) were employed for pilot screens (see library screening).
This was done using the optimised assay conditions developed during the study. Library compounds were transferred from pre-prepared, 1000x stock Echo® 384 LDV source plates (Labcyte) into black, low volume 384 assay plates (Greiner) at 25 nl volumes, using an Echo® Liquid Handler (Labcyte), maintaining 0.1–1% DMSO throughout. EPAC1-CNB (0.8 µM) was immediately added using a Wellmate automated dispenser (Thermo Matrix). Plates were centrifuged at 800 rpm, 10 s, and then incubated for 30 minutes, RT, to promote compound-protein complex formation. […] The assay was incubated at room temperature and the fluorescence intensity at 480/535 nm (ex/em) was measured after 4–15 hours using the Envision plate reader.

SMILES | NMR interaction (EPAC1-CNB [1]) | IC50 (EPAC1-CNB [2]; read-out: IC50, 8-NBD-cAMP binding assay) [µM] | Kd (EPAC1-CNB [2]) [µM] | IC50 (EPAC1-CNB [2]; IC50, 8-NBD-cAMP binding assay) [µM] | affinity, fold lower than that of cAMP (EPAC1-CNB [2]; competition assay, isolated CNB domain)
O=C(COc1ccc2ccccc2c1)NS(=O)(=O)c1ccccc1 [I178, N-(benzenesulfonyl)-2-(naphthalen-2-yloxy)acetamide] | Strong, Specific Interaction | ~40 |  |  | 
Cc1ccc(S(=O)(=O)NC(=O)COc2ccc3ccccc3c2)c(C)c1 [I942, N-(2,4-dimethylbenzenesulfonyl)-2-(naphthalen-2-yloxy)acetamide] | Strong, Specific Interaction |  | ~40 | ~35 | about 10 fold
